Publication PMC11003488 (Journal of Enzyme Inhibition and Medicinal Chemistry, 2023)

Experiments:
Type in all cases: cell-based
Conditions in all cases: Homo sapiens
MDA-MB-435 = assay: NCI-60 SRB growth inhibition, one-dose and five-dose
OVCAR-5 = assay: as above
U251 = assay: as above
HS 578 T = assay: as above
SW-620 = assay: as above
SNB-75 = assay: as above
HT29 = assay: as above
MOLT-4 = assay: as above
LOX IMVI = assay: as above
NCI-H226 = assay: as above
UACC-62 = assay: as above
MDA-MB-468 = assay: as above
CCRF-CEM = assay: as above
SK-OV-3 = assay: as above
NCI-H522 = assay: as above
HL-60(TB) = assay: cells
SK-MEL-28 = assay: NCI-60 SRB growth inhibition, one-dose and five-dose
M14 = assay: as above
MALME-3M = assay: as above
NCI/ADR-RES = assay: as above
HOP-92 = assay: as above
SF-295 = assay: as above
SNB-19 = assay: as above
COLO 205 = assay: as above
TK-10 = assay: as above
K-562 = assay: as above
PC-3 = assay: as above
RXF 393 = assay: as above
SF-268 = assay: as above
SK-MEL-5 = assay: as above
BT-549 = assay: as above
HOP-62 = assay: as above
IGROV1 = assay: as above
DU-145 = assay: as above
NCI-H322M = assay: as above
A549/ATCC = assay: as above
SR = assay: as above
NCI-H460 = assay: as above
786-0 = assay: as above
A498 = assay: as above
OVCAR-4 = assay: as above
SF-539 = assay: as above
[1] = read-out: percent growth inhibition

In the case of `Cc1ccc(CNc2cccc(C(=O)/C=C/c3cccnc3)c2)cc1` [Compound 5a, (E)-1–(3-((4-methylbenzyl)amino)phenyl)-3-(pyridin-3-yl)prop-2-en-1-one], the GI50 (MDA-MB-435; MDA-MB-435) is reported as 3.04 µM, the inhibition at 10 µM (MDA-MB-435; MDA-MB-435, read-out: percent growth inhibition) is reported as 92% and the GI50 (OVCAR-5; OVCAR-5) is reported as 15.6 µM. The inhibition at 10 µM (OVCAR-5; OVCAR-5, read-out: percent growth inhibition) was 52.2%, the GI50 (U251; U-251) was 9.87 µM and the inhibition at 10 µM (U251; U-251, read-out: percent growth inhibition) was 193%. For the same compound, the GI50 (HS 578 T) was 14.6 µM, the inhibition at 10 µM (HS 578 T; [1]) was 69.2% and the GI50 (SW-620; SW-620) was 2030 nM. For the same compound, the inhibition at 10 µM (SW-620; SW-620, read-out: percent growth inhibition) was 173%, the GI50 (SNB-75; SNB-75) was 13.1 µM and the inhibition at 10 µM (SNB-75; SNB-75, read-out: percent growth inhibition) was 46.6%. It also gave a GI50 (HT29; HT-29) of 14.1 µM, an inhibition at 10 µM (HT29; HT-29, read-out: percent growth inhibition) of 159% and a GI50 (MOLT-4; MOLT-4) of 3.54 µM. The inhibition at 10 µM (MOLT-4; MOLT-4, read-out: percent growth inhibition) was 57.3%, the GI50 (LOX IMVI) was 1880 nM and the inhibition at 10 µM (LOX IMVI; [1]) was 195%. It also gave a GI50 (NCI-H226; NCI-H226) of 11.9 µM, an inhibition at 10 µM (NCI-H226; NCI-H226, read-out: percent growth inhibition) of 37.9% and a GI50 (UACC-62; UACC-62) of 11.1 µM. The inhibition at 10 µM (UACC-62; UACC-62, read-out: percent growth inhibition) was 58.4%, the GI50 (MDA-MB-468; MDA-MB-468) was 6.3 µM and the inhibition at 10 µM (MDA-MB-468; MDA-MB-468, read-out: percent growth inhibition) was 153%. It also gave a GI50 (CCRF-CEM) of 2580 nM, an inhibition at 10 µM (CCRF-CEM; [1]) of 53.1% and a GI50 (SK-OV-3; SK-OV-3) of 16.1 µM. The inhibition at 10 µM (SK-OV-3; SK-OV-3, read-out: percent growth inhibition) was 60.2%, the GI50 (NCI-H522; NCI-H522) was 13.8 µM and the inhibition at 10 µM (NCI-H522; NCI-H522, read-out: percent growth inhibition) was 134%. For the same compound, the GI50 (HL-60(TB); HL-60) was 6.25 µM, the inhibition at 10 µM (HL-60(TB); HL-60, read-out: percent growth inhibition) was 54.6% and the GI50 (SK-MEL-28; SK-MEL-28) was 14.7 µM. For the same compound, the inhibition at 10 µM (SK-MEL-28; SK-MEL-28, read-out: percent growth inhibition) was 71.6%, the GI50 (M14; M14) was 13.1 µM and the inhibition at 10 µM (M14; M14, read-out: percent growth inhibition) was 92.7%. For the same compound, the GI50 (MALME-3M) was 13.6 µM, the inhibition at 10 µM (MALME-3M; [1]) was 127% and the GI50 (NCI/ADR-RES) was 7.54 µM. It also gave a GI50 (HOP-92; HOP-92) of 10.9 µM, an inhibition at 10 µM (HOP-92; HOP-92, read-out: percent growth inhibition) of 41.8% and a GI50 (SF-295; SF-295) of 14 µM. For the same compound, the inhibition at 10 µM (SF-295; SF-295, read-out: percent growth inhibition) was 58.9%, the GI50 (SNB-19; SNB-19) was 14 µM and the inhibition at 10 µM (SNB-19; SNB-19, read-out: percent growth inhibition) was 34.9%. It also gave a GI50 (COLO 205; COLO 205) of 17.1 µM, an inhibition at 10 µM (COLO 205; COLO 205, read-out: percent growth inhibition) of 36.9% and a GI50 (TK-10; TK-10) of 14.4 µM. It also gave an inhibition at 10 µM (TK-10; TK-10, read-out: percent growth inhibition) of 18.9%, a GI50 (K-562; K562) of 3.09 µM and an inhibition at 10 µM (K-562; K562, read-out: percent growth inhibition) of 93.6%. It also gave a GI50 (PC-3; PC-3) of 14.2 µM, an inhibition at 10 µM (PC-3; PC-3, read-out: percent growth inhibition) of 84.8% and a GI50 (RXF 393; RXF 393) of 12.3 µM. For the same compound, the inhibition at 10 µM (RXF 393; RXF 393, read-out: percent growth inhibition) was 67.9%, the GI50 (SF-268; SF-268) was 12.8 µM and the inhibition at 10 µM (SF-268; SF-268, read-out: percent growth inhibition) was 38.2%. For the same compound, the GI50 (SK-MEL-5; SK-MEL-5) was 8.96 µM, the inhibition at 10 µM (SK-MEL-5; SK-MEL-5, read-out: percent growth inhibition) was 74.9% and the GI50 (BT-549; BT-549) was 10.4 µM. For the same compound, the inhibition at 10 µM (BT-549; BT-549, read-out: percent growth inhibition) was 111%, the GI50 (HOP-62; HOP-62) was 15.6 µM and the inhibition at 10 µM (HOP-62; HOP-62, read-out: percent growth inhibition) was 15.1%. For the same compound, the GI50 (IGROV1; IGROV-1) was 13.6 µM, the inhibition at 10 µM (IGROV1; IGROV-1, read-out: percent growth inhibition) was 44.5% and the GI50 (DU-145; DU-145) was 13.3 µM. The inhibition at 10 µM (DU-145; DU-145, read-out: percent growth inhibition) was 53.9%, the GI50 (NCI-H322M) was 15.7 µM and the inhibition at 10 µM (NCI-H322M; [1]) was 19.6%. For the same compound, the GI50 (A549/ATCC; A549) was 17.3 µM, the inhibition at 10 µM (A549/ATCC; A549, read-out: percent growth inhibition) was 27.2% and the GI50 (SR) was 2820 nM. It also gave an inhibition at 10 µM (SR; [1]) of 85.6%, a GI50 (NCI-H460; NCI-H460) of 12.9 µM and an inhibition at 10 µM (NCI-H460; NCI-H460, read-out: percent growth inhibition) of 42%. It also gave a GI50 (786-0; 786-0) of 15.5 µM, an inhibition at 10 µM (786-0; 786-0, read-out: percent growth inhibition) of 126% and a GI50 (A498; A498) of 14.4 µM. The inhibition at 10 µM (A498; A498, read-out: percent growth inhibition) was 14.1%, the GI50 (OVCAR-4; OVCAR-4) was 6.81 µM and the inhibition at 10 µM (OVCAR-4; OVCAR-4, read-out: percent growth inhibition) was 63.8%. The GI50 (SF-539; SF-539) was 15.6 µM and the inhibition at 10 µM (SF-539; SF-539, read-out: percent growth inhibition) was 152%.
